Data published in DBAASP.
≈ marks a conversion by molar mass, not a printed value. Where “and” joins values, the source holds several entries; their conditions need not be identical. Equal values may be shown once. One block for each compound: values may come before it.

Columns and labels:
Test in all cases: ≥ marks a high value that may be exact or a test limit, other limits are often not marked, values filed in µg/mL are converted to µM
[1] = test system: Staphylococcus epidermidis ATCC 12228
Escherichia coli UB1005 = test system: Escherichia coli UB1005
[2] = test system: Staphylococcus aureus ATCC 25923
[3] = test system: Salmonella enterica subsp. enterica serovar Typhimurium C77-31
[4] = test system: Staphylococcus aureus ATCC 29213
Escherichia coli K88 = test system: Escherichia coli K88
[5] = test system: Lacticaseibacillus rhamnosus 1.0385
[6] = test system: Lacticaseibacillus rhamnosus 1.0911
[7] = test system: Streptococcus agalactiae ATCC 13813
[8] = test system: Lacticaseibacillus rhamnosus 1.0386
[9] = test system: Pseudomonas aeruginosa ATCC 27853
[10] = test system: Lacticaseibacillus rhamnosus 1.9205
[11] = test system: Lactiplantibacillus plantarum 8014
Escherichia coli 078 = test system: Escherichia coli 078
[12] = test system: Lacticaseibacillus rhamnosus 7469
Escherichia coli K99 = test system: Escherichia coli K99
Escherichia coli 987P = test system: Escherichia coli 987P
[13] = test system: Candida glabrata PMC 0805
Candida krusei PMC 0624 = test system: Candida krusei PMC 0624
Candida krusei PMC 0610 = test system: Candida krusei PMC 0610
[14] = test system: Trichophyton mentagrophytes PMC 6529
[15] = test system: Candida albicans ATCC 24433
[16] = test system: Candida albicans ATCC 10231
[17] = test system: Aspergillus terreus PMC 7201
[18] = test system: Trichophyton mentagrophytes PMC 6530
[19] = test system: Corynebacterium jeikeium ATCC BAA-949
[20] = test system: Aspergillus brasiliensis DSM 1988
[21] = test system: Aspergillus niger PMC 7101
[22] = test system: Microsporum canis DSM 10708
[23] = test system: Cryptococcus neoformans DSM 11759
[24] = test system: Candida parapsilosis PMC 0711
[25] = test system: Candida tropicalis DSM 11953
[26] = test system: Trichophyton mentagrophytes DSM 4870
[27] = test system: Candida parapsilosis DSM 11224
[28] = test system: Trichophyton mentagrophytes PMC 6528
[29] = test system: Acinetobacter baumannii BCRC 14B0100
[30] = test system: Staphylococcus epidermidis
Escherichia coli BL21 = test system: Escherichia coli BL21
[31] = test system: Pseudomonas aeruginosa PAO1
[32] = test system: Staphylococcus aureus ATCC BAA-41
[33] = test system: Staphylococcus aureus ATCC 6538P
[34] = test system: Staphylococcus aureus NCTC 10788
[35] = test system: Candida albicans NCYC 1467
[36] = test system: Enterococcus faecalis NCTC 12697
[37] = test system: Staphylococcus aureus NCTC 12493
[38] = test system: Klebsiella pneumoniae ATCC 43816
[39] = test system: Escherichia coli NCTC 10418

SMILES: CC[C@H](C)[C@H](NC(=O)CNC(=O)[C@H](CC(N)=O)NC(=O)[C@H](CC(C)C)NC(=O)[C@@H](NC(=O)[C@H](CCCN=C(N)N)NC(=O)CNC(=O)[C@@H](NC(=O)[C@@H](NC(=O)[C@@H]1CCCN1C(=O)[C@H](Cc1ccccc1)NC(=O)[C@@H](N)Cc1ccccc1)C(C)C)[C@@H](C)CC)[C@@H](C)CC)C(=O)N[C@@H](CC(C)C)C(N)=O [FFPVIGRILNGIL]
MIC [13]: ≥ 64 µM
MIC (Candida krusei PMC 0624): ≥ 32 µM
MIC (Candida krusei PMC 0610): ≥ 128 µM
MIC [14]: ≥ 32 µM
MIC [15]: ≥ 32 µM
MIC [16]: 16 µM and 21.3 µM
MIC [17]: ≥ 128 µM
MIC [18]: ≥ 64 µM
MIC [19]: 16 µM (≈ 23.3 µg/mL)
MIC [20]: ≥ 128 µM
MIC [21]: ≥ 128 µM
MIC [22]: ≥ 64 µM
MIC [23]: ≥ 32 µM
MIC [24]: ≥ 128 µM
MIC [25]: 16 µM (≈ 23.3 µg/mL)
MIC [26]: 16 µM (≈ 23.3 µg/mL)
MIC [27]: ≥ 128 µM
MIC [28]: ≥ 32 µM

SMILES: CC[C@H](C)[C@H](NC(=O)[C@H](CCCN=C(N)N)NC(=O)[C@H](CCC(N)=O)NC(=O)[C@@H](NC(=O)[C@@H](NC(=O)[C@H](CCCN=C(N)N)NC(=O)[C@H](CCCCN)NC(C)=O)[C@@H](C)CC)C(C)C)C(=O)N[C@@H](CCCCN)C(=O)N[C@@H](CC(=O)O)C(=O)N[C@@H](Cc1ccccc1)C(=O)N[C@@H](CC(C)C)C(=O)N[C@@H](CCCN=C(N)N)C(=O)N[C@@H](C)C(=O)NCC(=O)N1CCC[C@H]1C(=O)N[C@H](C(=O)N[C@@H](CCCCN)C(=O)N[C@@H](CC(=O)O)C(=O)N[C@@H](Cc1ccccc1)C(=O)N[C@@H](CC(C)C)C(=O)N[C@@H](CCCN=C(N)N)C(N)=O)[C@@H](C)CC [KRIVQRIKDFLRAGPIKDFLR]
MIC [29]: 0.778 µM and 0.389 µM

SMILES: CC[C@H](C)[C@@H]1NC(=O)[C@H](C)NC(=O)[C@@H](NC(=O)[C@H](Cc2ccccc2)NC(=O)[C@@H](NC(=O)[C@H](CCCCN)NC(=O)[C@H](Cc2c[nH]c3ccccc23)NC(=O)[C@@H]2CCCN2C(=O)[C@H](Cc2c[nH]c3ccccc23)NC(=O)[C@H](Cc2ccccc2)NC(=O)[C@@H](N)CCCCN)[C@@H](C)CC)CSSC[C@@H](C(=O)O)NC(=O)[C@H](CCCCN)NC(=O)[C@H](CCCCN)NC(=O)[C@H]([C@@H](C)O)NC1=O [KFWPWKIFCAITKKC]
MIC [34]: 8 µM (≈ 15.2 µg/mL)
MIC [35]: 8 µM (≈ 15.2 µg/mL)
MIC [36]: ≥ 256 µM
MIC [37]: 8 µM (≈ 15.2 µg/mL)
MIC [38]: ≥ 32 µM
MIC [9]: 64 µM (≈ 121 µg/mL)
MIC [39]: 16 µM (≈ 30.4 µg/mL)

More lines, main results first:

MIC [1]: 4 µM (≈ 7.71 µg/mL)
MIC (Escherichia coli UB1005): 8 µM (≈ 15.4 µg/mL)
MIC [2]: 8 µM (≈ 15.4 µg/mL)
MIC [3]: ≥ 128 µM
MIC [4]: 4 µM (≈ 7.71 µg/mL)
MIC (Escherichia coli K88): 8 µM (≈ 15.4 µg/mL)
MIC [5]: ≥ 128 µM
MIC [6]: ≥ 128 µM
MIC [7]: 8 µM (≈ 15.4 µg/mL)
MIC [8]: ≥ 128 µM
MIC [9]: 4 µM (≈ 7.71 µg/mL)
MIC [10]: ≥ 128 µM
MIC (Escherichia coli 078): 16 µM (≈ 30.8 µg/mL)
MIC [12]: ≥ 128 µM
MIC (Escherichia coli K99): 4 µM (≈ 7.71 µg/mL)
MIC (Escherichia coli 987P): 2 µM (≈ 3.85 µg/mL)
SMILES: CC[C@H](C)[C@H](NC(=O)[C@H](CCCCN)NC(=O)[C@@H](NC(=O)[C@@H](N)Cc1c[nH]c2ccccc12)[C@@H](C)CC)C(=O)N[C@@H](Cc1c[nH]c2ccccc12)C(=O)N[C@@H](CCCCN)C(=O)N[C@@H](CCCCN)C(=O)N[C@H](C(=O)N[C@H](C(=O)N[C@@H](CCCCN)C(=O)N[C@@H](CCCCN)C(=O)N[C@@H](Cc1c[nH]c2ccccc12)C(=O)N[C@@H](CCCCN)C(=O)N[C@@H](CCCCN)C(=O)O)[C@@H](C)CC)[C@@H](C)CC [WIKIWKKIIKKWKK]
MIC [11]: ≥ 128 µM

MIC [30]: 0.5 µM (≈ 0.914 µg/mL)
MIC (Escherichia coli BL21): 0.707 µM (≈ 1.29 µg/mL)
MIC [31]: 1.41 µM (≈ 2.59 µg/mL)
MIC [32]: 4 µM (≈ 7.31 µg/mL)
MIC [33]: 1.41 µM (≈ 2.59 µg/mL)
SMILES: CC[C@H](C)[C@H](NC(=O)[C@H](CCCCN)NC(=O)[C@H](CCCCN)NC(=O)[C@H](Cc1ccccc1)NC(=O)[C@H](CC(C)C)NC(=O)[C@H](CCCCN)NC(=O)[C@H](Cc1c[nH]c2ccccc12)NC(=O)[C@@H](N)CCCCN)C(=O)NCC(=O)N[C@@H](CCCCN)C(=O)N[C@H](C(=O)N[C@@H](CC(C)C)C(=O)N[C@@H](CCCCN)C(=O)N[C@H](C(=O)N[C@@H](CC(C)C)C(=O)O)C(C)C)C(C)C [KWKLFKKIGKVLKVL]
